Measurements reported in US20210127673A1, “HERBICIDES” (SYNGENTA PARTICIPATIONS AG, priority 2016, published 2021).

Tests used:
Type in all cases: in vivo
Settings in all cases: evaluated after 13 days
[1] = test system: Triticum aestivium (TRZAW); assay: Pre-emergence herbicidal activity, Triticum aestivium; set-up: key: 5=total damage to plant; 0=no damage to plant
Method in brief: (§1)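 Damage rated on a 0 (none) to 5 (total) scale 13 days after treatment. Spray was an aqueous solution from an acetone/water (50:50) formulation with 0.5% Tween 20, applied pre-emergence one day post-sowing; plants kept in a glasshouse at 24/16 °C, 14 h light, 65% humidity.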

Avena fatua (AVEFA) [2] = assay: Pre-emergence herbicidal activity, Avena fatua; set-up: key: 5=total damage to plant; 0=no damage to plant
Method in brief: as §1

[3] = test system: Alopecurus myosuroides (ALOMY); assay: Pre-emergence herbicidal activity, Alopecurus myosuroides; set-up: key: 5=total damage to plant; 0=no damage to plant
Method in brief: as §1

[4] = test system: Echinochloa crus-galli (ECHCG); assay: Pre-emergence herbicidal activity, Echinochloa crus-galli; set-up: key: 5=total damage to plant; 0=no damage to plant
Method in brief: as §1

Lolium perenne (LOLPE) [5] = assay: Pre-emergence herbicidal activity, Lolium perenne; set-up: key: 5=total damage to plant; 0=no damage to plant
Method in brief: as §1

Setaria faberi (SETFA) [6] = assay: Pre-emergence herbicidal activity, Setaria faberi; set-up: key: 5=total damage to plant; 0=no damage to plant
Method in brief: as §1

[7] = test system: Triticum aestivium (TRZAW); assay: Post-emergence herbicidal activity, Triticum aestivium; set-up: key: 5=total damage to plant; 0=no damage to plant
Method in brief: (§2)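 Scores (0 no damage to 5 total damage) read 13 d after spraying. Plants sprayed post-emergence 8 d after sowing; spray solution acetone/water 50:50 with 0.5% Tween 20. Growth at 24/16 °C day/night, 14 h light, 65% RH, twice-daily watering.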

Avena fatua (AVEFA) [8] = assay: Post-emergence herbicidal activity, Avena fatua
Method in brief: as §2

[9] = test system: Alopecurus myosuroides (ALOMY); assay: Post-emergence herbicidal activity, Alopecurus myosuroides; set-up: key: 5=total damage to plant; 0=no damage to plant
Method in brief: as §2

[10] = test system: Echinochloa crus-galli (ECHCG); assay: Post-emergence herbicidal activity, Echinochloa crus-galli; set-up: key: 5=total damage to plant; 0=no damage to plant
Method in brief: as §2

Lolium perenne (LOLPE) [11] = assay: Post-emergence herbicidal activity, Lolium perenne; set-up: key: 5=total damage to plant; 0=no damage to plant
Method in brief: as §2

Setaria faberi (SETFA) [12] = assay: Post-emergence herbicidal activity, Setaria faberi; set-up: key: 5=total damage to plant; 0=no damage to plant
Method in brief: as §2

| Compound | Control of TRAZW after pre-emergence application (score 0-5) ([1]; 1000 g/ha) | Control of AVEFA after pre-emergence application (score 0-5) (Avena fatua (AVEFA) [2]; 1000 g/ha) | Control of ALOMY after pre-emergence application (score 0-5) ([3]; 1000 g/ha) | Control of ECHCG after pre-emergence application (score 0-5) ([4]; 1000 g/ha) | Control of LOLPE after pre-emergence application (score 0-5) (Lolium perenne (LOLPE) [5]; 1000 g/ha) | Control of SETFA after pre-emergence application (score 0-5) (Setaria faberi (SETFA) [6]; 1000 g/ha) | Control of TRAZW after post-emergence application (score 0-5) ([7]; 1000 g/ha) | Control of AVEFA after post-emergence application (score 0-5) (Avena fatua (AVEFA) [8]; 1000 g/ha) | Control of ALOMY after post-emergence application (score 0-5) ([9]; 1000 g/ha) | Control of ECHCG after post-emergence application (score 0-5) ([10]; 1000 g/ha) | Control of LOLPE after post-emergence application (score 0-5) (Lolium perenne (LOLPE) [11]; 1000 g/ha) | Control of SETFA after post-emergence application (score 0-5) (Setaria faberi (SETFA) [12]; 1000 g/ha) | Control of TRAZW after pre-emergence application (score 0-5) ([1]; 250 g/ha) | Control of AVEFA after pre-emergence application (score 0-5) (Avena fatua (AVEFA) [2]; 250 g/ha) | Control of ALOMY after pre-emergence application (score 0-5) ([3]; 250 g/ha) | Control of ECHCG after pre-emergence application (score 0-5) ([4]; 250 g/ha) | Control of LOLPE after pre-emergence application (score 0-5) (Lolium perenne (LOLPE) [5]; 250 g/ha) | Control of SETFA after pre-emergence application (score 0-5) (Setaria faberi (SETFA) [6]; 250 g/ha) | Control of TRAZW after post-emergence application (score 0-5) ([7]; 250 g/ha) | Control of AVEFA after post-emergence application (score 0-5) (Avena fatua (AVEFA) [8]; 250 g/ha) | further results |
| --- | --- | --- | --- | --- | --- | --- | --- | --- | --- | --- | --- | --- | --- | --- | --- | --- | --- | --- | --- | --- | --- |
| COc1nc(-c2cncc(F)c2)ccc1N(C(=O)OC(C)(C)C)C(=O)OC(C)(C)C [Compound B109] | 0 | 1 | 0 | 0 | 0 | 3 | 0 | 1 | 0 | 1 | 0 | 1 |  |  |  |  |  |  |  |  |  |
| CN1CCN(C(=O)Nc2ccc(-c3cncc(F)c3)nc2C(F)(F)F)CC1 [Compound B48] | 0 | 1 | 0 | 3 | 1 | 4 | 0 | 2 | 0 | 4 | 1 | 5 |  |  |  |  |  |  |  |  |  |
| CC(C)(C)COC(=O)Nc1ccc(-c2cncc(F)c2)nc1C(F)(F)F [Compound B91] |  |  |  |  |  |  |  |  |  |  |  |  | 1 | 1 | 0 | 2 | 1 | 5 | 0 | 2 | Control of ALOMY after post-emergence application (score 0-5) ([9]; 250 g/ha): 0; Control of ECHCG after post-emergence application (score 0-5) ([10]; 250 g/ha): 2; Control of LOLPE after post-emergence application (score 0-5) (Lolium perenne (LOLPE) [11]; 250 g/ha): 1; Control of SETFA after post-emergence application (score 0-5) (Setaria faberi (SETFA) [12]; 250 g/ha): 5 |
| NC(=O)Nc1ccc(-c2cncc(F)c2)nc1C(F)(F)F [Compound B47] | 0 | 1 | 0 | 4 | 1 | 5 | 0 | 3 | 0 | 4 | 2 | 5 |  |  |  |  |  |  |  |  |  |
| COC(=O)CN(C(=O)OC(C)(C)C)c1ccc(-c2cncc(F)c2)nc1C(F)(F)F [Compound B11] | 0 | 0 | 0 | 0 | 0 | 1 | 0 | 1 | 0 | 2 | 1 | 3 |  |  |  |  |  |  |  |  |  |
| Cc1cc(CNC(=O)Nc2ccc(-c3cncc(F)c3)nc2C(F)(F)F)c(C(F)(F)F)o1 [Compound B79] | 0 | 0 | 0 | 2 | 1 | 1 | 0 | 2 | 0 | 1 | 1 | 2 |  |  |  |  |  |  |  |  |  |
| CNC(=O)N(C)c1ccc(-c2cncc(F)c2)nc1C(F)(F)F [Compound B73] | 0 | 0 | 0 | 2 | 1 | 4 | 1 | 3 | 1 | 4 | 2 | 4 |  |  |  |  |  |  |  |  |  |
| O=C(Nc1ccc(-c2cncc(F)c2)nc1C(F)(F)F)N1CCOCC1 [Compound B39] | 0 | 3 | 0 | 4 | 1 | 5 | 1 | 4 | 1 | 5 | 3 | 5 |  |  |  |  |  |  |  |  |  |
| O=C(NCC1CCCCC1)Nc1ccc(-c2cncc(F)c2)nc1C(F)(F)F [Compound B80] |  |  |  |  |  |  |  |  |  |  |  |  | 0 | 1 | 0 | 1 | 2 | 2 | 0 | 2 | Control of ALOMY after post-emergence application (score 0-5) ([9]; 250 g/ha): 0; Control of ECHCG after post-emergence application (score 0-5) ([10]; 250 g/ha): 1; Control of LOLPE after post-emergence application (score 0-5) (Lolium perenne (LOLPE) [11]; 250 g/ha): 1; Control of SETFA after post-emergence application (score 0-5) (Setaria faberi (SETFA) [12]; 250 g/ha): 2 |
| CSCCCNC(=O)Nc1ccc(-c2cncc(F)c2)nc1C(F)(F)F [Compound B98] |  |  |  |  |  |  |  |  |  |  |  |  | 0 | 1 | 0 | 1 | 1 | 4 | 0 | 3 | Control of ALOMY after post-emergence application (score 0-5) ([9]; 250 g/ha): 0; Control of ECHCG after post-emergence application (score 0-5) ([10]; 250 g/ha): 2; Control of LOLPE after post-emergence application (score 0-5) (Lolium perenne (LOLPE) [11]; 250 g/ha): 0; Control of SETFA after post-emergence application (score 0-5) (Setaria faberi (SETFA) [12]; 250 g/ha): 5 |
